Reference: PubChem BioAssay (NCI)
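Cultured in 96-well plates, cells were exposed to test compound for 48 hours across five concentrations. Definition used: TGI = concentration required for complete inhibition of growth.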

Columns and labels:
Test in all cases: DTP human tumour cell line panel, 48 h
CCRF-CEM leukemia = tested on: CCRF-CEM leukemia
A549 NSCLC = tested on: A549 NSCLC
IGROV1 ovarian = tested on: IGROV1 ovarian
M14 melanoma = tested on: M14 melanoma
SF-268 CNS = tested on: SF-268 CNS
HOP-92 NSCLC = tested on: HOP-92 NSCLC
UACC-62 melanoma = tested on: UACC-62 melanoma
SN12C renal = tested on: SN12C renal
HCT-15 colon = tested on: HCT-15 colon
EKVX NSCLC = tested on: EKVX NSCLC
UO-31 renal = tested on: UO-31 renal
SR leukemia = tested on: SR leukemia
HOP-62 NSCLC = tested on: HOP-62 NSCLC
SF-295 CNS = tested on: SF-295 CNS
KM12 colon = tested on: KM12 colon
OVCAR-3 ovarian = tested on: OVCAR-3 ovarian
HL-60(TB) leukemia = tested on: HL-60(TB) leukemia
SNB-75 CNS = tested on: SNB-75 CNS
MCF7 breast = tested on: MCF7 breast
SW-620 colon = tested on: SW-620 colon

| SMILES | TGI (CCRF-CEM leukemia) [µM] | TGI (A549 NSCLC) [µM] | TGI (IGROV1 ovarian) [µM] | TGI (M14 melanoma) [µM] | TGI (SF-268 CNS) [µM] | TGI (HOP-92 NSCLC) [µM] | TGI (UACC-62 melanoma) [µM] | TGI (SN12C renal) [µM] | TGI (HCT-15 colon) [µM] | TGI (EKVX NSCLC) [µM] | TGI (UO-31 renal) [µM] | TGI (SR leukemia) [µM] | TGI (HOP-62 NSCLC) [µM] | TGI (SF-295 CNS) [µM] | TGI (KM12 colon) [µM] | TGI (OVCAR-3 ovarian) [µM] | TGI (HL-60(TB) leukemia) [µM] | TGI (SNB-75 CNS) [µM] | TGI (MCF7 breast) [µM] | TGI (SW-620 colon) [µM] |
| --- | --- | --- | --- | --- | --- | --- | --- | --- | --- | --- | --- | --- | --- | --- | --- | --- | --- | --- | --- | --- |
| Clc1ccc2c(NCCCCN3OC3c3ccccc3)ccnc2c1 (stereo not given) | 8.09 | 19.2 | 27.7 | 6.22 | 27.1 | 25.8 | 27.1 | 24.7 | 23.5 | 38 | 28.6 | > 100 | 10.9 | 26.1 | 22.8 | 9.33 | 2.63 | 11.4 | 17.5 | 18.5 |
| COC(=O)c1c(CC(Cc2ccc3c(c2)CCCC3)C(=O)O)ccc2c1CCCC2 (stereo not given) | > 100 | > 100 | > 100 | > 100 | > 100 | 50.9 | 52.4 | > 100 | 33.8 | 68.6 | 62.3 | 91.6 | 51.7 | > 100 | 77.2 | 34.3 | 46.5 | > 100 | 84.1 | > 100 |
| Clc1ccc(-c2cc(-c3cc4cc(Br)ccc4nc3Cl)on2)cc1 | 36.2 | > 50 | > 50 | 37.9 | 28.6 | > 50 | > 50 | > 50 | > 50 | 36.2 | > 50 | > 50 | > 50 | > 50 | > 50 | 30.7 | 4.89 | > 50 | 43.8 | 27.5 |
| O=c1[nH]c(SCc2cccc([N+](=O)[O-])c2)nc2nc[nH]c12 | > 100 | > 100 | > 100 | > 100 | > 100 | > 100 | > 100 | > 100 | > 100 | > 100 | > 100 | > 100 | > 100 | > 100 | > 100 | > 100 | > 100 | > 100 | > 100 | > 100 |
| N#Cc1c(Cl)c2cccnc2n2c1nc1ccccc12 | 4.02 | 18.6 | 4.94 | > 21.4 | 8.4 | 3.91 | 9.1 | 3.7 | 3.82 | 14.9 | 3.33 | 5.83 | > 56.1 | 35.9 | 20.3 | 9.6 | 3.78 | 15.4 | > 25.1 | 4.59 |
| CC(Oc1ccc(Oc2cnc3ccc(Cl)cc3n2)cc1)C(=O)O (stereo not given) | > 100 | > 100 | > 100 | > 100 | > 100 | > 100 | > 100 | > 100 | > 100 | > 100 | > 100 | > 100 | > 100 | > 100 | > 100 | > 100 | > 100 | > 100 | > 100 | > 100 |
